Results as given in patent publication US10030016B2 (Sunesis Pharmaceuticals, Inc., priority 2009, dated 2018).

Tests used:
[1] = test system: phospho-akt (Thr308) in PC-3 cells; assay: Inhibition of phospho-akt (Thr308) in PC-3 cells, MSD phospho-akt 308 ELISA kit; format: cell-based; conditions: Homo sapiens; inhibition of P308 Akt in PC-3 cells using MSD, 2 hours, no serum; read-out: EC50
Procedure, shortened: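 Serum-free 2 h compound exposure of overnight-seeded PC-3 cells, threefold dilution series; lysates analysed on blocked MSD plates (3% BSA) for Thr308-phosphorylated Akt, normalised between DMSO and 5 μM wortmannin wells.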

[2] = target: PDK1 (Homo sapiens (Human), UniProt O15530); assay: PDK1 kinase assay (coupled PDK1/AKT/FAM-crosstide assay, IMAP fluorescence polarization); format: biochemical; conditions: inhibition of PDK1 in vitro
Chain of PDK1 (O15530 51-359): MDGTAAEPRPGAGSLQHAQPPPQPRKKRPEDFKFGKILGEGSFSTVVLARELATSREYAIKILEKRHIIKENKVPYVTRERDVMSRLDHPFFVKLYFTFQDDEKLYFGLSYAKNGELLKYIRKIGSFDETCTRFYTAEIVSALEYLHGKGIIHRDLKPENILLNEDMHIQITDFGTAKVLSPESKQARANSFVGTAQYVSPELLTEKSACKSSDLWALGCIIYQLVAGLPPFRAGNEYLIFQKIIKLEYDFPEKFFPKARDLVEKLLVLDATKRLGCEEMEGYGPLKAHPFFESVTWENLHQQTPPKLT
Procedure, shortened: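 GST-tagged PDK1 (aa 51-359, 0.75 nM) was coupled to unphosphorylated GST-AKT2 140-467-PIFtide (10 nM) and 100 nM FAM-crosstide at 40 μM ATP, in Tris pH 7.2 buffer, for 30 min at 25 °C. Crosstide phosphorylation was read by IMAP fluorescence polarization (ΔmP) and fitted with a 4-parameter curve.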

EC50 [1] [nM] | IC50 [2] [nM] | Compound
1000 to 10000 | < 100 | C[C@H](NC(=O)c1nc(C#N)cnc1NCc1ccc(-c2cnc(N)c(-c3cccc(O)c3)n2)cc1)c1ccc(F)c(F)c1 [Example 235, 3-{4-[5-Amino-6-(3-hydroxy-phenyl)-pyrazin-2-yl]-benzylamino}-6-cyano-pyrazine-2-carboxylic acid [(S)-1-(3,4-difluoro-phenyl)-ethyl]-amide]
1000 to 10000 | < 100 | Nc1ncc(-c2ccc(CNc3ncc(C(F)(F)F)cc3C(=O)Nc3ccc(F)cc3)cc2)nc1-c1cccc(O)c1 [Example 236, 2-{4-[5-Amino-6-(3-hydroxy-phenyl)-pyrazin-2-yl]-benzylamino}-N-(4-fluoro-phenyl)-5-trifluoromethyl-nicotinamide]
< 1000 | < 100 | C[C@H](NC(=O)c1cc(C#N)cnc1NCc1ccc(-c2cnc(N)c(-c3cccc(N)c3)n2)cc1)c1ccc(F)cc1 [Example 237, 2-{4-[5-Amino-6-(3-amino-phenyl)-pyrazin-2-yl]-benzylamino}-5-cyano-N-[(S)-1-(4-fluoro-phenyl)-ethyl]-nicotinamide]
< 1000 | < 100 | C[C@H](NC(=O)c1nc(C#N)cnc1NCc1ccc(-c2cnc(N)c(-c3cccc(N)c3)n2)cc1)c1ccc(F)c(F)c1 [Example 238, 3-{4-[5-Amino-6-(3-amino-phenyl)-pyrazin-2-yl]-benzylamino}-6-cyano-pyrazine-2-carboxylic acid [(S)-1-(3,4-difluoro-phenyl)-ethyl]-amide]
1000 to 10000 | < 100 | Nc1cccc(-c2nc(-c3ccc(CNc4ncc(C(F)(F)F)cc4C(=O)Nc4ccc(F)cc4)cc3)cnc2N)c1 [Example 239, 2-{4-[5-Amino-6-(3-amino-phenyl)-pyrazin-2-yl]-benzylamino}-N-(4-fluoro-phenyl)-5-trifluoromethyl-nicotinamide]
< 1000 | < 100 | C[C@H](NC(=O)c1cc(C#N)cnc1NCc1ccc(-c2cnc(N)c(CO)n2)cc1)c1ccc(F)cc1 [Example 240, (S)-2-(4-(5-amino-6-(hydroxymethyl)pyrazin-2-yl)benzylamino)-5-cyano-N-(1-(4-fluorophenyl)ethyl)nicotinamide]
< 1000 | < 100 | C[C@H](NC(=O)c1cc(C#N)cnc1NCc1ccc(-c2cnc(N)c(NCC(O)CO)n2)cc1)c1ccc(F)cc1 (stereo partly drawn) [Example 243, 2-{4-[5-Amino-6-(2,3-dihydroxy-propylamino)-pyrazin-2-yl]-benzylamino}-5-cyano-N-[(S)-1-(4-fluoro-phenyl)-ethyl]-nicotinamide]
< 1000 | < 100 | C[C@H](NC(=O)c1nc(C#N)cnc1NCc1ccc(-c2cnc(N)c(NCC(O)CO)n2)cc1)c1ccc(F)c(F)c1 (stereo partly drawn) [Example 244, 3-{4-[5-Amino-6-(2,3-dihydroxy-propylamino)-pyrazin-2-yl]-benzylamino}-6-cyano-pyrazine-2-carboxylic acid [(S)-1-(3,4-difluoro-phenyl)-ethyl]-amide]
< 1000 | < 100 | Nc1ncc(-c2ccc(CNc3ncc(C(F)(F)F)cc3C(=O)Nc3ccc(F)cc3)cc2)nc1NCC(O)CO (stereo not shown) [Example 245, 2-{4-[5-Amino-6-(2,3-dihydroxy-propylamino)-pyrazin-2-yl]-benzylamino}-N-(4-fluoro-phenyl)-5-trifluoromethyl-nicotinamide]
< 1000 | < 100 | C[C@H](NC(=O)c1cc(C(F)(F)F)cnc1NCc1ccc(-c2cnc3[nH]ncc3c2)cc1)c1ccc(F)cc1 [Example 246, N-[(S)-1-(4-Fluoro-phenyl)-ethyl]-2-[4-(1H-pyrazolo[3,4-b]pyridin-5-yl)-benzylamino]-5-trifluoromethyl-nicotinamide]
> 10000 | < 100 | N#Cc1ccc(NCc2ccc(-c3ccc4ncnc(N)c4c3)s2)c(C(=O)NCc2ccc(F)c(F)c2)c1 [Example 247, 2-(((5-(4-aminoquinazolin-6-yl)thiophen-2-yl)methyl)amino)-5-cyano-N-(3,4-difluorobenzyl)benzamide]
